Data reported in paper PMC5107130 (Pharmacological Research, 2016).
Values joined by “and” are separate entries in the source; they are usually repeats but may differ in a detail not shown here. Equal values may be shown once. “Also recorded” adds a separate entry of the source. Read-outs that look alike come from different tables or passages of the source. Each block holds one compound with its values, some of them ahead of it.

Key:
CBS = conditions: cited from earlier work; for % inhibition of CBS activity: 1 mM
[1] = Counterscreen: AzMC fluorescence signal generated by the H2S donor GYY4137; conditions: for % inhibition of GYY4137-induced AzMC fluorescence / Confirmation (% inhibition of GYY4137-induced AzMC fluorescence): mean ± SEM, n = 3
HCT116 cells [2] = test: Cytotoxicity, lactate dehydrogenase; assay type: cell-based, human; conditions: 48 h
[3] = target: T1, Recombinant full length human CBS (Homo sapiens, UniProt P35520); test: Methylene blue assay of CBS-derived H2S; assay type: biochemical; conditions: read-out: % inhibition of CBS-induced methylene blue signal
T1 sequence (P35520 1-551): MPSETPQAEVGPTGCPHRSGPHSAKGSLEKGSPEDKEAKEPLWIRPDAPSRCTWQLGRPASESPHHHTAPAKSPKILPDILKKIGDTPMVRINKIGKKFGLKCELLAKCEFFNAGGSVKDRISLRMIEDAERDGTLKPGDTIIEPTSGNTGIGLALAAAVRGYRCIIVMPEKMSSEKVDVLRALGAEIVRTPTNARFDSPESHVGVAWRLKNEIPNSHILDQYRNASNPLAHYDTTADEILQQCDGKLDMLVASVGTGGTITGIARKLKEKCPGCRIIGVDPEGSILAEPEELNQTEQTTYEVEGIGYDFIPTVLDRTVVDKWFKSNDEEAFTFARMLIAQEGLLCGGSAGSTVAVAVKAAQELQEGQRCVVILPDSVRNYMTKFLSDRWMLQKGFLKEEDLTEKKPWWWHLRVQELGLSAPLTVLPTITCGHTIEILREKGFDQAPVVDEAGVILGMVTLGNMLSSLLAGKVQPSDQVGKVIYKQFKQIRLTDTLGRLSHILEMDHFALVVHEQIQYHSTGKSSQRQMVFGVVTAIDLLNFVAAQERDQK

HCT116 cells [4] = test: Cell proliferation, xCELLigence system; assay type: cell-based, human; conditions: Cell Index, 48 h, concentration in the value
[5] = target: T1, Recombinant full length human CBS; test: AzMC fluorescence assay of CBS-derived H2S production; assay type: biochemical; conditions: for % inhibition of CBS-induced AzMC fluorescence: copper compounds; for % inhibition of CBS-induced AzMC fluorescence / Confirmation (% inhibition of CBS-induced AzMC fluorescence): mean ± SEM, n = 3; for Initial screen (% inhibition of CBS-induced AzMC fluorescence) / Confirmation (% inhibition of CBS-induced AzMC fluorescence): 30 μM
HCT116 cells [6] = test: Mitochondrial function, MTT assay; assay type: cell-based, human; conditions: 48 h
CSE = conditions: cited from earlier work
[7] = read-out: % inhibition of CBS-induced AzMC fluorescence, 10 μM, mean ± SEM, n = 3
[8] = read-out: % inhibition of CBS-induced AzMC fluorescence, 100 μM, mean ± SEM, n = 3
[9] = read-out: Confirmation (% inhibition of CBS-induced AzMC fluorescence), 30 μM, mean ± SEM, n = 3
[10] = read-out: Initial screen (% inhibition of CBS-induced AzMC fluorescence), 30 μM
[11] = read-out: % inhibition of CBS-induced AzMC fluorescence

Compound: C#CCC(N)C(=O)O (stereo not shown) [PAG]
CBS inhibition (CBS): is not an inhibitor of CBS

Compound: N[C@@H]1CON=C1O [D-cycloserine]
% inhibition of CBS activity (CBS): 15–20%

Compound: O=C(OC[C@H]1O[C@@H](OC(=O)c2cc(O)c(O)c(OC(=O)c3cc(O)c(O)c(O)c3)c2)[C@H](OC(=O)c2cc(O)c(O)c(OC(=O)c3cc(O)c(O)c(O)c3)c2)[C@@H](OC(=O)c2cc(O)c(O)c(OC(=O)c3cc(O)c(O)c(O)c3)c2)[C@@H]1OC(=O)c1cc(O)c(O)c(OC(=O)c2cc(O)c(O)c(O)c2)c1)c1cc(O)c(O)c(OC(=O)c2cc(O)c(O)c(O)c2)c1 [Tannic acid, 2,3-dihydroxy-5-({[(2R,3R,4S,5R,6R)-3,4,5,6-tetrakis({3,4-dihydroxy-5-[(3,4,5-trihydroxyphenyl)carbonyloxy]phenyl}carbonyloxy)oxan-2-yl]methoxy}carbonyl)phenyl 3,4,5-trihydroxybenzoate]
% inhibition of GYY4137-induced AzMC fluorescence ([1]; 10 μM): −1 ± 1%
% inhibition of GYY4137-induced AzMC fluorescence ([1]; 30 μM): 3 ± 2%
Confirmation (% inhibition of GYY4137-induced AzMC fluorescence) ([1]; 30 μM): 3 ± 2%
% inhibition of GYY4137-induced AzMC fluorescence ([1]; 100 μM): 8 ± 3%
Cytotoxicity / LDH release in HCT116 cells (HCT116 cells [2]): without signs of cytotoxicity
inhibition at 10 µM [3]: 24 ± 9%
inhibition at 30 µM [3]: 46 ± 3%
inhibition at 100 µM [3]: 56 ± 3%
Effect on HCT116 cell proliferation (words) (HCT116 cells [4]): concentration-dependently inhibited proliferation, starting with 10 μM; also recorded: complete inhibition was seen at 100 μM
IC50 [5]: ~40 µM
inhibition at 10 µM [5, 7]: 28 ± 2%
inhibition at 30 µM ([5]; read-out: % inhibition of CBS-induced AzMC fluorescence, 30 μM, mean ± SEM, n = 3): 43 ± 1%
inhibition at 100 µM [5, 8]: 75 ± 1%
inhibition at 30 µM [5, 9]: 43 ± 1%
inhibition at 30 µM [5, 10]: 73%

Compound: [Cl][Cu][Cl] [CuCl2, copper(II) chloride]
% inhibition of GYY4137-induced AzMC fluorescence ([1]; copper compounds, 0.1 μM): 1 ± 1%
% inhibition of GYY4137-induced AzMC fluorescence ([1]; copper compounds, 0.3 μM): 10 ± 1%
% inhibition of GYY4137-induced AzMC fluorescence ([1]; copper compounds, 1 μM): 14 ± 1%
MTT conversion in HCT116 cells (HCT116 cells [6]): decreased MTT conversion
Cytotoxicity / LDH release in HCT116 cells (HCT116 cells [2]): paradoxical reduction in LDH activity
Effect on HCT116 cell proliferation (words) (HCT116 cells [4]): only inhibited HCT116 cells proliferation at the highest concentration tested (1 mM)
Effect on HCT116 cell proliferation (words) (HCT116 cells [4]; listed as copper ions): up to 300 μM, did not inhibit HCT116 cell proliferation
% inhibition of CBS-induced AzMC fluorescence ([5]; 0.1 μM): 36 ± 1%
% inhibition of CBS-induced AzMC fluorescence ([5]; 0.3 μM): 60 ± 2%
% inhibition of CBS-induced AzMC fluorescence ([5]; 1 μM): 90 ± 1%
IC50 ([5]; read-out: IC50, inhibition of recombinant CBS (CBS-induced AzMC fluorescence), cell-free, 2 mM L-cysteine and homocysteine): ~0.2 µM

Initial screen (% inhibition of CBS-induced AzMC fluorescence) [5]: 49%
Confirmation (% inhibition of CBS-induced AzMC fluorescence) [5]: 42 ± 1%
Compound: N#C/C(=C\c1ccc(O)c(O)c1)C(=O)NCCCNC(=O)/C(C#N)=C/c1ccc(O)c(O)c1 [Tyrphostin AG 537]
Confirmation (% inhibition of GYY4137-induced AzMC fluorescence) ([1]; 30 μM): 48 ± 2%

Initial screen (% inhibition of CBS-induced AzMC fluorescence) [5]: 72%
Confirmation (% inhibition of CBS-induced AzMC fluorescence) [5]: 58 ± 3%
Compound: NC(N)=NC(=O)c1nc(Cl)c(N2CCCCCC2)nc1N [5-(N,N-hexamethylene)amiloride]
Confirmation (% inhibition of GYY4137-induced AzMC fluorescence) ([1]; 30 μM): 54 ± 4%

Compound: CC(=O)[O][Hg][c]1ccccc1 [Phenylmercuric acetate]
Confirmation (% inhibition of GYY4137-induced AzMC fluorescence) ([1]; 30 μM): 59 ± 2% and 32 ± 4%
Initial screen (% inhibition of CBS-induced AzMC fluorescence) [5]: 69% and 52%
Confirmation (% inhibition of CBS-induced AzMC fluorescence) [5]: 50 ± 6% and 29 ± 4%

Initial screen (% inhibition of CBS-induced AzMC fluorescence) [5]: 80%
Confirmation (% inhibition of CBS-induced AzMC fluorescence) [5]: 97 ± 1%
Initial screen (% inhibition of CBS-induced AzMC fluorescence) ([5]; listed as Chlorophyllide cu complex Na salt): 82%
Compound: Chlorophyllide Cu complex Na salt
Confirmation (% inhibition of GYY4137-induced AzMC fluorescence) ([1]; 30 μM): 78 ± 3%

Compound: Cn1ncnc2c(=O)n(C)c(=O)nc1-2 [NSC67078, 1,6-dimethyl-pyrimido[5,4-e]-1,2,4-triazine-5,7(1H,6H)-dione]
% inhibition of GYY4137-induced AzMC fluorescence ([1]; 1 μM): 25 ± 1%
% inhibition of GYY4137-induced AzMC fluorescence ([1]; 10 μM): 65 ± 1%
% inhibition of GYY4137-induced AzMC fluorescence ([1]; 30 μM): 78 ± 1%
IC50 ([1]; read-out: IC50, inhibition of GYY4137-induced AzMC fluorescence, scavenging/non-specific effects): ~6 µM
MTT conversion in HCT116 cells (HCT116 cells [6]): suppression of MTT conversion
Potency of CSE inhibition relative to CBS inhibition (fold lower) (CSE): 3 fold
inhibition at 1 µM [3]: 59 ± 2%
inhibition at 10 µM [3]: 73 ± 1%
inhibition at 30 µM [3]: 95 ± 1%
IC50 [5]: ~1 µM
inhibition at 1 µM [5, 11]: 47 ± 1%
inhibition at 10 µM [5, 11]: 88 ± 1%
inhibition at 30 µM [5, 11]: 93 ± 1%

Compound: NNCc1ccc(O)c(O)c1O [2,3,4-trihydroxybenzylhydrazine]
MTT conversion in HCT116 cells (HCT116 cells [6]): reduced MTT conversion at 300 μM
Cytotoxicity / LDH release in HCT116 cells (HCT116 cells [2]): did not exert cytotoxic effects
Effect on HCT116 cell proliferation (words) (HCT116 cells [4]): inhibited HCT116 cell proliferation in vitro at 10–300 μM
inhibition at 30 µM ([5]; read-out: % inhibition of recombinant CBS activity, 30 μM, standard assay conditions): 51 ± 2%
inhibition at 100 µM ([5]; read-out: % inhibition of recombinant CBS activity, 100 μM, standard assay conditions, freshly dissolved): 82%

inhibition at 10 µM [3]: 38 ± 2%
inhibition at 30 µM [3]: 61 ± 1%
inhibition at 100 µM [3]: 72 ± 1%
IC50 [5]: ~3 µM
inhibition at 10 µM [5, 7]: 72 ± 1%
inhibition at 100 µM [5, 8]: 94 ± 1%
inhibition at 30 µM [5, 9]: 87 ± 1%
inhibition at 30 µM [5, 10]: 59%
Compound: O=C(O)C1=CC(=C(c2ccc(O)c(C(=O)O)c2)c2ccc(O)c(C(=O)O)c2)C=CC1=O [Aurintricarboxylic acid]
% inhibition of GYY4137-induced AzMC fluorescence ([1]; 10 μM): −3 ± 2%
Confirmation (% inhibition of GYY4137-induced AzMC fluorescence) ([1]; 30 μM): −2 ± 1%
% inhibition of GYY4137-induced AzMC fluorescence ([1]; 100 μM): 6 ± 1%
Effect on HCT116 cell proliferation (words) (HCT116 cells [4]): did not inhibit cell proliferation at 10–100 μM; also recorded: at 300 μM increased cell proliferation
Effect on HCT116 cell proliferation (words) (HCT116 cells [4]; listed as aurintricarboxylic acid): stimulated cell proliferation at 300 μM

Compound: NNC(=O)c1ccncc1 [isoniazid]
% inhibition of CBS activity (CBS): 15–20%

Compound: Oc1c(Cl)cc(Cl)c(Cl)c1Cc1c(O)c(Cl)cc(Cl)c1Cl.Oc1c(Cl)cc(Cl)c(Cl)c1Cc1c(O)c(Cl)cc(Cl)c1Cl [Hexachlorophene, 2,2′-methylenebis(3,4,6-trichlorophenol)-3,4,6-trichloro-2-[(2,3,5-trichloro-6-hydroxyphenyl)methyl]phenol]
% inhibition of GYY4137-induced AzMC fluorescence ([1]; 10 μM): −4 ± 2%
Confirmation (% inhibition of GYY4137-induced AzMC fluorescence) ([1]; 30 μM): 1 ± 1%
% inhibition of GYY4137-induced AzMC fluorescence ([1]; 100 μM): −2 ± 1%
Cytotoxicity / LDH release in HCT116 cells (HCT116 cells [2]): exerted cytotoxic effects
inhibition at 10 µM [3]: 21 ± 1%
inhibition at 30 µM [3]: 31 ± 1%
inhibition at 100 µM [3]: 64 ± 1%
Effect on HCT116 cell proliferation (words) (HCT116 cells [4]): did not affect HCT116 proliferation up to 3 μM; also recorded: fully inhibited cell proliferation at 10 μM; also recorded: inhibits HCT116 proliferation at fairly low concentrations (10 μM)
IC50 [5]: ~60 µM
inhibition at 10 µM [5, 7]: 3 ± 1%
inhibition at 100 µM [5, 8]: 70 ± 1%
inhibition at 30 µM [5, 9]: 12 ± 1%
inhibition at 30 µM [5, 10]: 48%

Initial screen (% inhibition of CBS-induced AzMC fluorescence) [5]: 69%
Confirmation (% inhibition of CBS-induced AzMC fluorescence) [5]: 41 ± 5%
Compound: Verteporfin
Confirmation (% inhibition of GYY4137-induced AzMC fluorescence) ([1]; 30 μM): 38 ± 5%

inhibition at 30 µM [5, 9]: 48 ± 5%
inhibition at 30 µM [5, 10]: 58%
Compound: O=Nc1ccc(O)c2ncccc12 [NSC 3852, 5-Nitroso-8-quinolinol]
Confirmation (% inhibition of GYY4137-induced AzMC fluorescence) ([1]; 30 μM): 47 ± 5%

Initial screen (% inhibition of CBS-induced AzMC fluorescence) [5]: 70%
Confirmation (% inhibition of CBS-induced AzMC fluorescence) [5]: 59 ± 8%
inhibition at 30 µM [5, 9]: 58 ± 8%
inhibition at 30 µM [5, 10]: 68%
Compound: O=C1C(SCCO)=C(SCCO)C(=O)c2ccccc21 [NSC 95397, 2,3bis[(2-Hydroxyethyl)thio]-1,4-naphthoquinone]
Confirmation (% inhibition of GYY4137-induced AzMC fluorescence) ([1]; 30 μM): 58 ± 1%
